{"source": "the supplement of paper PMC10307832", "experiment_in_all_cases": "relative viability (nuclei count vs DMSO), 5 days (fraction); higher = more cells survive", "key": {"Elesclomol": {"compound": "CN(NC(=O)CC(=O)NN(C)C(=S)c1ccccc1)C(=S)c1ccccc1 [Elesclomol]", "procedure,_shortened": "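For viability, nuclei in each treated well were divided by nuclei in vehicle wells and the median across plates was taken. Lung cancer cell lines in 1536-well plates were pinned with five library-drug doses (not always all listed) spaced by √10, cultured 5 days without medium change, and imaged at 4× after Hoechst staining, with plates passing only at control CV below 25% and at least one doubling.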"}, "Elesclomol + Pemetrexed": {"compound": "CN(NC(=O)CC(=O)NN(C)C(=S)c1ccccc1)C(=S)c1ccccc1 [Elesclomol] + Nc1nc2[nH]cc(CCc3ccc(C(=O)N[C@@H](CCC(=O)O)C(=O)O)cc3)c2c(=O)[nH]1 [Pemetrexed] (partner 0.2 µM)", "procedure,_shortened": "(§1)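 Values are medians from duplicate plates. Each reflects relative viability, defined as the nuclei count of treated wells over that of vehicle wells. Lung cancer cell lines in 1536-well plates were pin-tool dosed one day after seeding with one drug alone or with a fixed anchor-drug dose plus five library-drug doses (not always all listed) in √10 steps, then fixed, stained and imaged at 4× after 5 days.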"}, "Elesclomol + Dasatinib": {"compound": "CN(NC(=O)CC(=O)NN(C)C(=S)c1ccccc1)C(=S)c1ccccc1 [Elesclomol] + Cc1nc(Nc2ncc(C(=O)Nc3c(C)cccc3Cl)s2)cc(N2CCN(CCO)CC2)n1 [Dasatinib] (partner 0.075 µM)", "procedure,_shortened": "as §1"}, "Elesclomol + Foretinib": {"compound": "CN(NC(=O)CC(=O)NN(C)C(=S)c1ccccc1)C(=S)c1ccccc1 [Elesclomol] + COc1cc2c(Oc3ccc(NC(=O)C4(C(=O)Nc5ccc(F)cc5)CC4)cc3F)ccnc2cc1OCCCN1CCOCC1 [Foretinib] (partner 0.25 µM)", "procedure,_shortened": "as §1"}, "Elesclomol + Pictilisib": {"compound": "CN(NC(=O)CC(=O)NN(C)C(=S)c1ccccc1)C(=S)c1ccccc1 [Elesclomol] + CS(=O)(=O)N1CCN(Cc2cc3nc(-c4cccc5[nH]ncc45)nc(N4CCOCC4)c3s2)CC1 [Pictilisib] (partner 1 µM)", "procedure,_shortened": "as §1"}, "Elesclomol + Crizotinib": {"compound": "CN(NC(=O)CC(=O)NN(C)C(=S)c1ccccc1)C(=S)c1ccccc1 [Elesclomol] + C[C@@H](Oc1cc(-c2cnn(C3CCNCC3)c2)cnc1N)c1c(Cl)ccc(F)c1Cl [Crizotinib] (partner 1 µM)", "procedure,_shortened": "as §1"}, "Elesclomol + Alpelisib": {"compound": "CN(NC(=O)CC(=O)NN(C)C(=S)c1ccccc1)C(=S)c1ccccc1 [Elesclomol] + Cc1nc(NC(=O)N2CCC[C@H]2C(N)=O)sc1-c1ccnc(C(C)(C)C(F)(F)F)c1 [Alpelisib] (partner 2 µM)", "procedure,_shortened": "as §1"}, "Elesclomol + Bortezomib": {"compound": "CN(NC(=O)CC(=O)NN(C)C(=S)c1ccccc1)C(=S)c1ccccc1 [Elesclomol] + CC(C)C[C@H](NC(=O)[C@H](Cc1ccccc1)NC(=O)c1cnccn1)B(O)O [Bortezomib] (partner 0.002 µM)", "procedure,_shortened": "as §1"}, "Elesclomol + OSI-027": {"compound": "CN(NC(=O)CC(=O)NN(C)C(=S)c1ccccc1)C(=S)c1ccccc1 [Elesclomol] + COc1cccc2cc(-c3nc([C@H]4CC[C@H](C(=O)O)CC4)n4ncnc(N)c34)[nH]c12 [OSI-027] (partner 0.5 µM)", "procedure,_shortened": "as §1"}, "Elesclomol + Linsitinib": {"compound": "CN(NC(=O)CC(=O)NN(C)C(=S)c1ccccc1)C(=S)c1ccccc1 [Elesclomol] + C[C@]1(O)C[C@@H](c2nc(-c3ccc4ccc(-c5ccccc5)nc4c3)c3c(N)nccn32)C1 [Linsitinib] (partner 1 µM)", "procedure,_shortened": "as §1"}, "Elesclomol + Phenformin": {"compound": "CN(NC(=O)CC(=O)NN(C)C(=S)c1ccccc1)C(=S)c1ccccc1 [Elesclomol] + N=C(N)NC(=N)NCCc1ccccc1 [Phenformin] (partner 250 µM)", "procedure,_shortened": "as §1"}, "Elesclomol + Lapatinib": {"compound": "CN(NC(=O)CC(=O)NN(C)C(=S)c1ccccc1)C(=S)c1ccccc1 [Elesclomol] + CS(=O)(=O)CCNCc1ccc(-c2ccc3ncnc(Nc4ccc(OCc5cccc(F)c5)c(Cl)c4)c3c2)o1 [Lapatinib] (partner 2 µM)", "procedure,_shortened": "as §1"}, "Elesclomol + Luminespib": {"compound": "CN(NC(=O)CC(=O)NN(C)C(=S)c1ccccc1)C(=S)c1ccccc1 [Elesclomol] + CCNC(=O)c1noc(-c2cc(C(C)C)c(O)cc2O)c1-c1ccc(CN2CCOCC2)cc1 [Luminespib] (partner 0.01 µM)", "procedure,_shortened": "as §1"}, "Elesclomol + Tozasertib": {"compound": "CN(NC(=O)CC(=O)NN(C)C(=S)c1ccccc1)C(=S)c1ccccc1 [Elesclomol] + Cc1cc(Nc2cc(N3CCN(C)CC3)nc(Sc3ccc(NC(=O)C4CC4)cc3)n2)n[nH]1 [Tozasertib] (partner 0.1 µM)", "procedure,_shortened": "as §1"}}, "data": [{"cell line": "NCI-H1563", "values": [{"measurement": "relative viability", "setting": "Elesclomol; 0.003162 µM", "value": 0.786}, {"measurement": "relative viability", "setting": "Elesclomol; 0.01 µM", "value": 0.675}, {"measurement": "relative viability", "setting": "Elesclomol; 0.03162 µM", "value": 0.651}, {"measurement": "relative viability", "setting": "Elesclomol; 0.1 µM", "value": 0.542}, {"measurement": "relative viability", "setting": "Elesclomol + Pemetrexed; first compound 0.003162 µM", "value": 0.741}, {"measurement": "relative viability", "setting": "Elesclomol + Pemetrexed; first compound 0.01 µM", "value": 0.698}, {"measurement": "relative viability", "setting": "Elesclomol + Pemetrexed; first compound 0.03162 µM", "value": 0.544}, {"measurement": "relative viability", "setting": "Elesclomol + Pemetrexed; first compound 0.1 µM", "value": 0.619}, {"measurement": "relative viability", "setting": "Elesclomol + Dasatinib; first compound 0.003162 µM", "value": 0.447}, {"measurement": "relative viability", "setting": "Elesclomol + Dasatinib; first compound 0.01 µM", "value": 0.476}, {"measurement": "relative viability", "setting": "Elesclomol + Dasatinib; first compound 0.03162 µM", "value": 0.413}, {"measurement": "relative viability", "setting": "Elesclomol + Dasatinib; first compound 0.1 µM", "value": 0.382}, {"measurement": "relative viability", "setting": "Elesclomol + Foretinib; first compound 0.003162 µM", "value": 0.727}, {"measurement": "relative viability", "setting": "Elesclomol + Foretinib; first compound 0.01 µM", "value": 0.724}, {"measurement": "relative viability", "setting": "Elesclomol + Foretinib; first compound 0.03162 µM", "value": 0.617}, {"measurement": "relative viability", "setting": "Elesclomol + Foretinib; first compound 0.1 µM", "value": 0.459}, {"measurement": "relative viability", "setting": "Elesclomol + Pictilisib; first compound 0.003162 µM", "value": 0.656}, {"measurement": "relative viability", "setting": "Elesclomol + Pictilisib; first compound 0.01 µM", "value": 0.582}, {"measurement": "relative viability", "setting": "Elesclomol + Pictilisib; first compound 0.03162 µM", "value": 0.587}, {"measurement": "relative viability", "setting": "Elesclomol + Pictilisib; first compound 0.1 µM", "value": 0.486}, {"measurement": "relative viability", "setting": "Elesclomol + Crizotinib; first compound 0.003162 µM", "value": 0.649}, {"measurement": "relative viability", "setting": "Elesclomol + Crizotinib; first compound 0.01 µM", "value": 0.623}, {"measurement": "relative viability", "setting": "Elesclomol + Crizotinib; first compound 0.03162 µM", "value": 0.502}, {"measurement": "relative viability", "setting": "Elesclomol + Crizotinib; first compound 0.1 µM", "value": 0.453}, {"measurement": "relative viability", "setting": "Elesclomol + Alpelisib; first compound 0.003162 µM", "value": 0.687}, {"measurement": "relative viability", "setting": "Elesclomol + Alpelisib; first compound 0.01 µM", "value": 0.613}, {"measurement": "relative viability", "setting": "Elesclomol + Alpelisib; first compound 0.03162 µM", "value": 0.537}, {"measurement": "relative viability", "setting": "Elesclomol + Alpelisib; first compound 0.1 µM", "value": 0.527}, {"measurement": "relative viability", "setting": "Elesclomol + Bortezomib; first compound 0.003162 µM", "value": 0.732}, {"measurement": "relative viability", "setting": "Elesclomol + Bortezomib; first compound 0.01 µM", "value": 0.62}, {"measurement": "relative viability", "setting": "Elesclomol + Bortezomib; first compound 0.03162 µM", "value": 0.457}, {"measurement": "relative viability", "setting": "Elesclomol + Bortezomib; first compound 0.1 µM", "value": 0.492}, {"measurement": "relative viability", "setting": "Elesclomol + OSI-027; first compound 0.003162 µM", "value": 0.647}, {"measurement": "relative viability", "setting": "Elesclomol + OSI-027; first compound 0.01 µM", "value": 0.606}, {"measurement": "relative viability", "setting": "Elesclomol + OSI-027; first compound 0.03162 µM", "value": 0.52}, {"measurement": "relative viability", "setting": "Elesclomol + OSI-027; first compound 0.1 µM", "value": 0.459}, {"measurement": "relative viability", "setting": "Elesclomol + Linsitinib; first compound 0.003162 µM", "value": 0.817}, {"measurement": "relative viability", "setting": "Elesclomol + Linsitinib; first compound 0.01 µM", "value": 0.705}, {"measurement": "relative viability", "setting": "Elesclomol + Linsitinib; first compound 0.03162 µM", "value": 0.632}, {"measurement": "relative viability", "setting": "Elesclomol + Linsitinib; first compound 0.1 µM", "value": 0.468}, {"measurement": "relative viability", "setting": "Elesclomol + Phenformin; first compound 0.003162 µM", "value": 0.589}, {"measurement": "relative viability", "setting": "Elesclomol + Phenformin; first compound 0.01 µM", "value": 0.569}, {"measurement": "relative viability", "setting": "Elesclomol + Phenformin; first compound 0.03162 µM", "value": 0.516}, {"measurement": "relative viability", "setting": "Elesclomol + Phenformin; first compound 0.1 µM", "value": 0.479}, {"measurement": "relative viability", "setting": "Elesclomol + Lapatinib; first compound 0.003162 µM", "value": 0.625}, {"measurement": "relative viability", "setting": "Elesclomol + Lapatinib; first compound 0.01 µM", "value": 0.562}, {"measurement": "relative viability", "setting": "Elesclomol + Lapatinib; first compound 0.03162 µM", "value": 0.601}, {"measurement": "relative viability", "setting": "Elesclomol + Lapatinib; first compound 0.1 µM", "value": 0.458}, {"measurement": "relative viability", "setting": "Elesclomol + Luminespib; first compound 0.003162 µM", "value": 0.518}, {"measurement": "relative viability", "setting": "Elesclomol + Luminespib; first compound 0.01 µM", "value": 0.472}, {"measurement": "relative viability", "setting": "Elesclomol + Luminespib; first compound 0.03162 µM", "value": 0.471}, {"measurement": "relative viability", "setting": "Elesclomol + Luminespib; first compound 0.1 µM", "value": 0.432}]}, {"cell line": "NCI-H1623", "values": [{"measurement": "relative viability", "setting": "Elesclomol; 0.003162 µM", "value": 0.775}, {"measurement": "relative viability", "setting": "Elesclomol; 0.01 µM", "value": 0.462}, {"measurement": "relative viability", "setting": "Elesclomol; 0.03162 µM", "value": 0.37}, {"measurement": "relative viability", "setting": "Elesclomol; 0.1 µM", "value": 0.339}, {"measurement": "relative viability", "setting": "Elesclomol + Dasatinib; first compound 0.003162 µM", "value": 0.499}, {"measurement": "relative viability", "setting": "Elesclomol + Dasatinib; first compound 0.01 µM", "value": 0.464}, {"measurement": "relative viability", "setting": "Elesclomol + Dasatinib; first compound 0.03162 µM", "value": 0.312}, {"measurement": "relative viability", "setting": "Elesclomol + Dasatinib; first compound 0.1 µM", "value": 0.254}, {"measurement": "relative viability", "setting": "Elesclomol + Tozasertib; first compound 0.003162 µM", "value": 0.392}, {"measurement": "relative viability", "setting": "Elesclomol + Tozasertib; first compound 0.01 µM", "value": 0.417}, {"measurement": "relative viability", "setting": "Elesclomol + Tozasertib; first compound 0.03162 µM", "value": 0.35}, {"measurement": "relative viability", "setting": "Elesclomol + Tozasertib; first compound 0.1 µM", "value": 0.303}, {"measurement": "relative viability", "setting": "Elesclomol + Foretinib; first compound 0.003162 µM", "value": 0.868}, {"measurement": "relative viability", "setting": "Elesclomol + Foretinib; first compound 0.01 µM", "value": 0.526}, {"measurement": "relative viability", "setting": "Elesclomol + Foretinib; first compound 0.03162 µM", "value": 0.422}, {"measurement": "relative viability", "setting": "Elesclomol + Foretinib; first compound 0.1 µM", "value": 0.422}, {"measurement": "relative viability", "setting": "Elesclomol + OSI-027; first compound 0.003162 µM", "value": 0.386}, {"measurement": "relative viability", "setting": "Elesclomol + OSI-027; first compound 0.01 µM", "value": 0.353}, {"measurement": "relative viability", "setting": "Elesclomol + OSI-027; first compound 0.03162 µM", "value": 0.347}, {"measurement": "relative viability", "setting": "Elesclomol + OSI-027; first compound 0.1 µM", "value": 0.296}, {"measurement": "relative viability", "setting": "Elesclomol + Phenformin; first compound 0.003162 µM", "value": 0.624}, {"measurement": "relative viability", "setting": "Elesclomol + Phenformin; first compound 0.01 µM", "value": 0.552}, {"measurement": "relative viability", "setting": "Elesclomol + Phenformin; first compound 0.03162 µM", "value": 0.539}, {"measurement": "relative viability", "setting": "Elesclomol + Phenformin; first compound 0.1 µM", "value": 0.443}, {"measurement": "relative viability", "setting": "Elesclomol + Luminespib; first compound 0.003162 µM", "value": 0.235}, {"measurement": "relative viability", "setting": "Elesclomol + Luminespib; first compound 0.01 µM", "value": 0.216}, {"measurement": "relative viability", "setting": "Elesclomol + Luminespib; first compound 0.03162 µM", "value": 0.251}, {"measurement": "relative viability", "setting": "Elesclomol + Luminespib; first compound 0.1 µM", "value": 0.217}]}]}
